# Data reported in publication PMC11855827, “High-Throughput Screening of Five Compound Libraries for Anthelmintic Activity and Toxicity Leads to the Discovery of Two Flavonoid Compounds” (International Journal of Molecular Sciences, 2025).
# Where two headings read alike, the source gives them in different places.
# System: C. elegans
# Assay: microbe, parasite or virus in culture
# Details: Caenorhabditis elegans
# [1] = 0 h, read-out: Percentage of motility inhibition 0 h, Table S2, C. elegans SS assay, 110 μM, 0 h, averages of 4 data points
# [2] = 24 h, read-out: Percentage of motility inhibition 24 h, Table S2, C. elegans SS assay, 110 μM, 24 h, averages of 4 data points
# [3] = 0 h, read-out: Percentage of motility inhibition 0 h
# [4] = 24 h, read-out: Percentage of motility inhibition 24 h
Structure (SMILES),inhibition at 110 µM [1] [%],inhibition at 110 µM [2] [%],inhibition at 110 µM [3] [%],inhibition at 110 µM [4] [%]
CC(=O)O[C@H]1CC(=O)OC(C)(C)[C@@H]2CC(=O)[C@]3(C)[C@H](CC[C@@]4(C)[C@H](c5ccoc5)OC(=O)[C@H]5O[C@]543)[C@@]12C [Nomilin],0,22,,
CC(=O)O[C@@H]1C(=O)C2=C(C(=O)C[C@H]3C(C)(C)C(=O)CC[C@]23C)[C@]2(C)C(=O)C[C@H]([C@H](C)CC(=O)CC(C)C(=O)O)[C@@]12C (stereo partly shown) [Ganoderic acid F],14,2,,
O=c1c(O)c(-c2ccc(O)c(O)c2)oc2cc(O)cc(O)c12 [Quercetin],24,11,,
COC(=O)Nc1nc2ccc([S+]([O-])c3ccccc3)cc2[nH]1 (stereo not shown) [Oxfendazole],12,5,,
O=c1ccc2ccccc2o1 [Coumarin],12,8,,
OC[C@@H](O)[C@H](O)[C@@H](O)CO [Xylitol],22,13,,
COc1cc2c3c(cc4ccccc4c3c1OC)N(C)CC2 [Dehydronuciferine],6,6,,
Oc1c(Br)cc(Br)c2cccnc12 [Broxyquinoline],0,8,,
COC(=O)C1=CO[C@@H](O[C@@H]2O[C@H](CO)[C@@H](O)[C@H](O)[C@H]2O)[C@H]2[C@@H]1[C@H](O)C[C@]2(C)O [Shanzhiside methyl ester],32,38,,
C[C@@H]1CC[C@@]2(NC1)O[C@H]1C[C@H]3[C@@H]4CC=C5C[C@@H](O[C@@H]6O[C@H](CO)[C@H](O)[C@H](O[C@@H]7O[C@H](CO)[C@@H](O)[C@H](O)[C@H]7O)[C@H]6O[C@@H]6O[C@@H](C)[C@H](O)[C@@H](O)[C@H]6O)CC[C@]5(C)[C@H]4CC[C@]3(C)[C@H]1[C@@H]2C [Solasonine],0,0,,
C[C@H]1[C@H](C)CC[C@]2(C(=O)O)CC[C@]3(C)C(=CC[C@@H]4[C@@]5(C)C[C@@H](O)[C@H](O)[C@@](C)(CO)[C@@H]5[C@H](O)C[C@]43C)[C@H]12 [Madecassic acid],1,31,,
COc1cc(C=O)cc(OC)c1O [Syringaldehyde],,,4,3
Oc1cc(O)c2c(c1)O[C@H](c1ccc(O)c(O)c1)[C@H](O)[C@H]2c1c(O)cc(O)c2c1O[C@H](c1ccc(O)c(O)c1)[C@H](O)C2 [Procyanidin B2],14,27,,
CN1C(=O)CC[C@H]1c1cccnc1 [Cotinine],45,16,,
C/C=C(\C)C(=O)O[C@H]1[C@H](OC(C)=O)[C@]2(CO)[C@H](O)C[C@]3(C)C(=CC[C@@H]4[C@@]5(C)CC[C@H](O[C@@H]6O[C@H](C(=O)O)[C@@H](O[C@@H]7O[C@H](CO)[C@@H](O)[C@H](O)[C@H]7O)[C@H](O)[C@H]6O[C@@H]6O[C@H](CO)[C@@H](O)[C@H](O)[C@H]6O)[C@](C)(CO)[C@@H]5CC[C@]43C)[C@@H]2CC1(C)C [Escin IA],0,0,,
C=C1C(=O)O[C@@H]2O[C@@]3(C)CC[C@H]4[C@H](C)CC[C@@H]1[C@@]24OO3 [Artemisitene],0,9,,
COC(=O)C1=CO[C@@H](O[C@@H]2O[C@H](CO)[C@@H](O)[C@H](O)[C@H]2O)[C@H]2[C@@H]1[C@H](O)C[C@]2(C)OC(C)=O [Barlerin],12,26,,
CN(C)CCc1ccc(O)cc1 [Hordenine],28,10,,
N[C@@H](Cc1c[nH]c2ccc(O)cc12)C(=O)O [5-Hydroxytryptophan],28,12,,
COc1ccc2c(OC)c3ccoc3nc2c1 [Evolitrine],0,15,,

Structure (SMILES),inhibition at 110 µM [1] [%],inhibition at 110 µM [2] [%],inhibition at 110 µM [3] [%],inhibition at 110 µM [4] [%]
O=C1C[C@@H](c2ccccc2)Oc2cc(O)cc(O)c21 [Pinocembrin],44,5,,
c1ccc2c(c1)[nH]c1cnccc12 [Norharmane],0,9,,
C/C=C1\C(=O)C[C@H]2[C@@H]3CCC4=CC(=O)CC[C@]4(C)[C@H]3CC[C@]12C [Guggulsterone],,,0,17
O=c1cc[nH]c(=O)[nH]1 [Uracil],0,0,,
C=C1CC[C@@H]2[C@](C)(CO)CCC[C@@]2(C)[C@@H]1CCC1=CCOC1=O [Andrograpanin],3,20,,
O=c1c(O)c(-c2ccc(O)c(O)c2)oc2cc(O)c(O)c(O)c12 [Quercetagetin],,,15,10
N[C@@H]1CON=C1O [D‐Cycloserine],12,13,,
COc1ccc(-c2cc(=O)c3c(OC)c(OC)c(OC)cc3o2)cc1OC [Sinensetin],0,0,,
O=C1C=C2C=C[C@@H]3C[C@@]2(O1)[C@H]1CCCCN31 [(‐)‐Securinine],0,12,,
O=c1ccc2ccc(O)c(O)c2o1 [Daphnetin],0,1,,
C=C1CCC2CC1C2(C)C (stereo not drawn) [β-Pinene],2,12,,
C=CC1=C(C)c2cc3[nH]c(cc4nc(cc5[nH]c(cc1n2)c(C)c5CCC(=O)O)C(CCC(=O)O)=C4C)c(C)c3C=C [Protoporphyrin IX],3,17,,
C[C@H]1COC2(CCN(c3nc(=O)c4cc(C(F)(F)F)cc([N+](=O)[O-])c4s3)CC2)O1 [BTZ043],0,5,,
C=C1CC[C@H]2C(=C)CC[C@H]3C(=C)C(=O)O[C@@H]3[C@@H]12 [Dehydrocostus Lactone],0,24,,
O=C1Nc2ccccc2/C1=C1/Nc2ccccc2C1=O [Indirubin],,6,,
Cc1cc(C2CCCCC2)n(O)c(=O)c1 [Ciclopirox],42,41,,
C=C1[C@@H]2CC[C@@H]3[C@](C2)(C(=O)[C@@H](O)[C@@H]2C(C)(C)[C@H]4CC(=O)[C@@]32CO4)[C@@H]1OC(C)=O [Maoecrystal A],7,2,,
O=C1c2cccc(O)c2C(=O)c2c(O)cccc21 [Danthron],21,9,,
CC(=O)[C@H]1CC[C@H]2[C@@H]3CCC4=CC(=O)CC[C@]4(C)[C@H]3CC[C@]12C [Progesterone],0,12,,
O=c1c(O)c(-c2ccccc2)oc2cc(O)cc(O)c12 [Galangin],10,8,,

Structure (SMILES),inhibition at 110 µM [1] [%],inhibition at 110 µM [2] [%],inhibition at 110 µM [3] [%],inhibition at 110 µM [4] [%]
CC(=O)OC[C@]12[C@H](OC(C)=O)[C@H](OC(C)=O)[C@@H]3[C@@H](OC(C)=O)[C@@]14O[C@@]3(C)COC(=O)c1cccnc1CCC(C)C(=O)O[C@@H]([C@H](OC(=O)c1ccccc1)[C@@H]2OC(C)=O)[C@]4(C)O (stereo partly shown) [Wilforine],23,9,,
O=c1c(O)c(-c2ccc(O)cc2O)oc2cc(O)cc(O)c12 [Morin],44,17,,
CC1=C(C(=O)O)N2C(=O)[C@@H](NC(=O)[C@H](N)C3=CCC=CC3)[C@H]2SC1 [Cefradine],37,11,,
Nc1ccn([C@@H]2O[C@H](CO)[C@@H](O)[C@H]2O)c(=O)n1 [Cytidine],12,5,,
O=c1cc(-c2ccccc2)oc2cc(O)cc(O)c12 [Chrysin],15,0,,
CC[C@H]1CN2CC[C@]3(C(=O)Nc4ccccc43)[C@@H]2C[C@@H]1/C(=C\OC)C(=O)OC [Rhynchophylline],0,8,,
COc1cc([C@@H]2c3cc4c(cc3[C@@H](O[C@@H]3O[C@@H]5CO[C@@H](C)O[C@H]5[C@H](O)[C@H]3O)[C@H]3COC(=O)[C@H]23)OCO4)cc(OC)c1O [Etoposide],0,4,,
COc1cc2c(cc1OC)-c1c(OC)c(OC)cc3c1[C@H](C2)N(C)CC3 [Glauci ne],0,11,,
CC(C)C1=C[C@H]2[C@@H](CC[C@]2(C)O)[C@](C)(O)CC1 [Alismoxide],2,0,,
COc1ccc(-c2coc3cc(O)c(OC)c(O)c3c2=O)cc1 [Irisolidone],0,0,,
CC(=O)Oc1ccccc1C(=O)Nc1ncc([N+](=O)[O-])s1 [Nitazoxanide],51,49,,
C=C(C)[C@H](CC=C(C)C)Cc1c(O)cc(O)c2c1O[C@H](c1ccccc1O)CC2=O [Kushenol A],14,10,,
Oc1ccc2[nH]ccc2c1 [5‐Hydroxyindole],28,9,,
O=C(O)CC(O)C(=O)O (stereo not shown) [Malic acid],2,14,,
C=C[C@H]1C[N@@]2CC[C@H]1C[C@@H]2[C@@H](O)c1ccnc2ccc(OC)cc12 [Quinidine],23,3,,
O=c1cc(-c2ccc(O)cc2)oc2cc(O[C@@H]3O[C@H](CO)[C@@H](O)[C@H](O)[C@H]3O)c([C@@H]3O[C@H](CO)[C@@H](O)[C@H](O)[C@H]3O)c(O)c12 [Saponarin],1,1,,
C[C@@H](O)[C@H]1C(=O)N2C(C(=O)O)=C(SC3CN(C4=NCCS4)C3)[C@H](C)[C@H]12 [Tebipenem],0,7,,
"Cc1cncc(C)n1 [2,6‐Dimethylpyrazine]",0,0,,
